From PMC10630888, “Nuclear ERK1/2 signaling potentiation enhances neuroprotection and cognition via Importinα1/KPNA2” (EMBO Molecular Medicine, 2023)

Experiments:
[1] = test system: phospho-ERK1/2 in HEK293 cells; assay: phospho-ERK1/2 immunofluorescence (nuclear) in HEK293 cells; format: cell-based; conditions: HEK293, siRNA 200 nM 24 h, then RB5 50 μM 15 min
Protocol: For Western blot and immunofluorescence analysis, 0.6 × 10^6 HEK293 cells were seeded in 6‐well plates in the presence of DMEM High Glucose GlutaMax (Thermo Fisher Scientific) containing 10% Foetal Bovine Serum (FBS, Thermo Fisher Scientific) and 100 U/ml penicillin/streptomycin (Thermo Fisher Scientific). For Western blot analysis to assess ERK1/2 and phospho‐ERK1/2 levels, cells were serum starved for 24 h and incubated with RB5 50 μM or FBS 20% for 15 min at 37°C. To assess JNK and phospho‐JNK levels, cells were incubated with RB5 50 μM or anisomycin 5 μM for 30 min at 37°C. For immunofluorescence analysis, cells were serum‐starved for 24 h and incubated with 50 μM RB5 or 20% FBS for 15 min at 37°C.
After rinsing in PBS, cells were fixed in 4% PFA and permeabilized with increasing concentrations of methanol (33, 50, 75, and 95% in PBS, 2 min each at room temperature), followed by 100% methanol for 10 min at −20°C. […] The mean fluorescence intensity in the nucleus was calculated automatically by Fiji‐ImageJ software in 8–10 fields per slide. […]

[2] = test system: S6 (Ser235/236) phosphorylation; assay: Striatal pS6 (Ser235/236) immunofluorescence 1 h after single injection; format: in vivo, mouse; conditions: single injection 20 mg/kg i.p., individual mice
Protocol: Immunofluorescence was performed as described in Papale et al ([2016]). Briefly, 1 h after blocking in 5% normal goat serum, slices were incubated overnight at 4°C with the following primary antibodies: anti‐phospho (Ser10)‐acetylated (Lys14) histone H3 (1:1,000, Millipore), anti‐phospho‐S6 ribosomal protein (Ser235/236) (1:200, Cell Signaling Technology) anti‐phospho‐S6 ribosomal protein (Ser240/244) (1:200, Cell Signaling), cleaved caspase‐3 (1:200, Cell Signaling Technology), anti‐mutant Huntingtin (1:100, Developmental Studies Hybridoma Bank, University of Iowa, #MW8), and NeuN (1:1,000, Millipore). Corresponding secondary antibodies (Alexa Fluor 546 conjugated anti‐mouse (1:200, Thermo Fisher Scientific), Alexa Fluor 488 conjugated anti‐rabbit (1:500, Thermo Fisher Scientific) and Pacific Blue goat anti‐mouse (1:200, Thermo Fisher Scientific) were incubated at room temperature for 1 h. Sections stained for mutant Huntingtin were incubated with DAPI for 20 min. Sections were subsequently mounted with fluorescent mounting medium (DAKO). Single and double‐labeled images ([…]) were obtained at 40× magnification from the striatum using a laser scanning confocal microscope (Leica SP2) equipped with the corresponding lasers and appropriate filter sets to avoid the crosstalk between the fluorochromes.
In ex‐vivo and in‐vivo immunofluorescence experiments, the number of p‐S6 or p‐AcH3 immunoreactive neurons among NeuN‐positive neurons was counted in 2–3 consecutive striatal sections per mouse in four fields per section. Caspase 3‐positive cells were quantified among NeuN‐positive neurons in each slide and expressed as percentage (ratio between caspase‐3‐positive cells and total NeuN‐positive neurons) for each field acquired through the slide. The number of cells showing mutant Huntingtin inclusions were expressed as a percentage of mutant Huntingtin‐positive cells among DAPI‐positive cells.

Sequence: GRKKRRQRRRPPQGGGGGEPRRTEGVGPGVPGEVEMVKGQPFDV [RB5, six D-amino acids, acetylated N-terminus]
- ERK1/2 activation (nuclear phospho-ERK1/2) after KPNA2 or IPO7 downregulation [1]: failed to induce ERK1/2 activation
- pS6 (Ser235/236) positive neurons in striatum ([2]; ERK1+/+ (WT) mice): comparable in both genotypes
- pS6 (Ser235/236) positive neurons in striatum ([2]; ERK1-/- mice): comparable in both genotypes
- pS6 (Ser235/236) positive neurons in striatum ([2]; 1 h): slightly reduced
